# Data reported in ChEMBL document CHEMBL6134781, “In vitro identification of oridonin hybrids as potential anti-TNBC agents inducing cell cycle arrest and apoptosis by regulation of p21, γH2AX and cleaved PARP” (RSC Med Chem, 2024).
# Key:
# [1] = test system: MDA-MB-231; experiment: Cytotoxicity against human MDA-MB-231 cells assessed as inhibition of cell viability incubated for 72 hrs by SRB assay; format: functional, cell-based; conditions: MDA-MB-231, 72 h
# [2] = test system: HCC1806; experiment: Induction of apoptosis in human HCC1806 cells assessed as early apoptotic cells at 1 uM incubated for 24 hrs by Annexin V-FITC/PI staining based flow cytometry (reference value: 3.06 %); format: functional
# [3] = test system: HCC1806; experiment: Induction of apoptosis in human HCC1806 cells assessed as viable cells at 1 uM incubated for 24 hrs by Annexin V-FITC/PI staining based flow cytometry (reference value: 95.4 %); format: functional; conditions: read-out: Activity
# [4] = test system: MDA-MB-231; experiment: Induction of apoptosis in human MDA-MB-231 cells assessed as early apoptotic cells at 3 uM incubated for 16 hrs by Annexin V-FITC/PI staining based flow cytometry (reference value: 1.94 %); format: functional
# [5] = test system: MDA-MB-231; experiment: Induction of apoptosis in human MDA-MB-231 cells assessed as early apoptotic cells at 1 uM incubated for 16 hrs by Annexin V-FITC/PI staining based flow cytometry (reference value: 1.94 %); format: functional
# [6] = test system: MDA-MB-231; experiment: Induction of cell cycle arrest in human MDA-MB-231 cells assessed as decrease in accumulation at S phase incubated for 16 hrs by PI staining based flow cytometry; format: functional; conditions: dose 1-3 µM
# [7] = test system: MDA-MB-231; experiment: Induction of apoptosis in human MDA-MB-231 cells assessed as viable cells at 1 uM incubated for 16 hrs by Annexin V-FITC/PI staining based flow cytometry (reference value: 89.5 %); format: functional; conditions: read-out: Activity
# [8] = test system: HCC1937; experiment: Induction of apoptosis in human HCC1937 cells assessed as late apoptotic cells at 3 uM incubated for 24 hrs by Annexin V-FITC/PI staining based flow cytometry (reference value: 1.45 %); format: functional
# [9] = test system: HCC1937; experiment: Induction of DNA damage in human HCC1937 cells assessed as increase in gamma-H2AX level incubated for 24 hrs by Western blot analysis; format: functional, cell-based; conditions: dose 1-3 µM
# [10] = test system: HCC1806; experiment: Induction of apoptosis in human HCC1806 cells assessed as viable cells at 3 uM incubated for 24 hrs by Annexin V-FITC/PI staining based flow cytometry (reference value: 95.4 %); format: functional; conditions: read-out: Activity
# [11] = test system: HCC1937; experiment: Induction of apoptosis in human HCC1937 cells assessed as necrotic cells at 1 uM incubated for 24 hrs by Annexin V-FITC/PI staining based flow cytometry (reference value: 0.58 %); format: functional
# [12] = test system: MDA-MB-468; experiment: Induction of cell cycle arrest in human MDA-MB-468 cells assessed as accumulation at G2/M phase incubated for 16 hrs by PI staining based flow cytometry; format: functional; conditions: dose 1-3 µM
# [13] = test system: MDA-MB-468; experiment: Induction of apoptosis in human MDA-MB-468 cells assessed as early apoptotic cells at 1 uM incubated for 24 hrs by Annexin V-FITC/PI staining based flow cytometry (reference value: 3.17 %); format: functional
# [14] = test system: HCC1806; experiment: Induction of cell cycle arrest in human HCC1806 cells assessed as accumulation at G2/M phase incubated for 16 hrs by PI staining based flow cytometry; format: functional; conditions: dose 1-3 µM
# [15] = test system: HCC1806; experiment: Induction of apoptosis in human HCC1806 cells assessed as increase in cleaved PARP-1 level incubated for 24 hrs by Western blot analysis; format: functional, cell-based; conditions: dose 1-3 µM
# [16] = test system: MDA-MB-231; experiment: Induction of apoptosis in human MDA-MB-231 cells assessed as viable cells at 3 uM incubated for 16 hrs by Annexin V-FITC/PI staining based flow cytometry (reference value: 89.5 %); format: functional; conditions: read-out: Activity
# [17] = test system: HCC1806; experiment: Induction of apoptosis in human HCC1806 cells assessed as necrotic cells at 1 uM incubated for 24 hrs by Annexin V-FITC/PI staining based flow cytometry (reference value: 0.049 %); format: functional
# [18] = test system: MDA-MB-231; experiment: Induction of cell cycle arrest in human MDA-MB-231 cells assessed as increase in p21 level incubated for 16 hrs by Western blot analysis; format: functional, cell-based; conditions: dose 1-3 µM
# [19] = test system: MDA-MB-231; experiment: Induction of apoptosis in human MDA-MB-231 cells assessed as necrotic cells at 1 uM incubated for 16 hrs by Annexin V-FITC/PI staining based flow cytometry (reference value: 3.89 %); format: functional
# [20] = test system: HCC1937; experiment: Induction of apoptosis in human HCC1937 cells assessed as viable cells at 1 uM incubated for 24 hrs by Annexin V-FITC/PI staining based flow cytometry (reference value: 97.2 %); format: functional; conditions: read-out: Activity
# [21] = test system: MDA-MB-231; experiment: Induction of apoptosis in human MDA-MB-231 cells assessed as necrotic cells at 3 uM incubated for 16 hrs by Annexin V-FITC/PI staining based flow cytometry (reference value: 3.89 %); format: functional
# [22] = Stability in human plasma assessed as half life at 100 uM by LC-MS/MS analysis; format: ADME, cell-free
# [23] = test system: MDA-MB-468; experiment: Induction of apoptosis in human MDA-MB-468 cells assessed as increase in cleaved PARP-1 level incubated for 24 hrs by Western blot analysis; format: functional, cell-based; conditions: dose 1-3 µM
# [24] = test system: HCC1937; experiment: Induction of cell cycle arrest in human HCC1937 cells assessed as increase in p21 level incubated for 16 hrs by Western blot analysis; format: functional, cell-based; conditions: dose 1-3 µM
# [25] = test system: HCC1806; experiment: Induction of DNA damage in human HCC1806 cells assessed as increase in gamma-H2AX level incubated for 24 hrs by Western blot analysis; format: functional, cell-based; conditions: dose 1-3 µM
# [26] = test system: MDA-MB-468; experiment: Induction of apoptosis in human MDA-MB-468 cells assessed as late apoptotic cells at 3 uM incubated for 24 hrs by Annexin V-FITC/PI staining based flow cytometry (reference value: 3.84 %); format: functional
# [27] = test system: MDA-MB-468; experiment: Induction of apoptosis in human MDA-MB-468 cells assessed as necrotic cells at 1 uM incubated for 24 hrs by Annexin V-FITC/PI staining based flow cytometry (reference value: 4.11 %); format: functional
# [28] = test system: HCC1937; experiment: Induction of apoptosis in human HCC1937 cells assessed as early apoptotic cells at 3 uM incubated for 24 hrs by Annexin V-FITC/PI staining based flow cytometry (reference value: 0.74 %); format: functional
# [29] = test system: MDA-MB-468; experiment: Induction of apoptosis in human MDA-MB-468 cells assessed as necrotic cells at 3 uM incubated for 24 hrs by Annexin V-FITC/PI staining based flow cytometry (reference value: 4.11 %); format: functional
# [30] = test system: MDA-MB-231; experiment: Induction of apoptosis in human MDA-MB-231 cells assessed as increase in cleaved PARP-1 level incubated for 16 hrs by Western blot analysis; format: functional, cell-based; conditions: dose 1-3 µM
# [31] = test system: HCC1806; experiment: Induction of cell cycle arrest in human HCC1806 cells assessed as increase in p21 level incubated for 16 hrs by Western blot analysis; format: functional, cell-based; conditions: dose 1-3 µM
# [32] = test system: MDA-MB-468; experiment: Induction of apoptosis in human MDA-MB-468 cells assessed as viable cells at 3 uM incubated for 24 hrs by Annexin V-FITC/PI staining based flow cytometry (reference value: 88.9 %); format: functional; conditions: read-out: Activity
# [33] = test system: MDA-MB-468; experiment: Induction of apoptosis in human MDA-MB-468 cells assessed as viable cells at 1 uM incubated for 24 hrs by Annexin V-FITC/PI staining based flow cytometry (reference value: 88.9 %); format: functional; conditions: read-out: Activity
# [34] = test system: MDA-MB-468; experiment: Effect on p21 expression in human MDA-MB-468 cells at 1 to 3 uM incubated for 16 hrs by Western blot analysis; format: functional, cell-based; conditions: dose 1-3 µM
# [35] = test system: HCC1806; experiment: Induction of apoptosis in human HCC1806 cells assessed as early apoptotic cells at 3 uM incubated for 24 hrs by Annexin V-FITC/PI staining based flow cytometry (reference value: 3.06 %); format: functional
# [36] = test system: MDA-MB-468; experiment: Cytotoxicity against human MDA-MB-468 cells assessed as inhibition of cell viability incubated for 72 hrs by SRB assay; format: functional, cell-based; conditions: MDA-MB-468, 72 h
structure (smiles),measurement,setting,value
C=C1C(=O)[C@]23[C@H](OC(=O)C45CC6CC(CC(C6)C4)C5)[C@H]1CC[C@H]2[C@@]12CO[C@]3(O)[C@@H](O)[C@@H]1C(C)(C)CC[C@@H]2O,IC50,[1],400 nM
same,Activity,[2],4.92%
same,viability at 1 µM,[3],92.2%
same,Activity,[4],3.51%
same,Activity,[5],4.31%
same,Activity,[6],Dose-dependent-effect
same,viability at 1 µM,[7],93.5%
same,Activity,[8],24.1%
same,Activity,[9],Dose-dependent-effect
same,viability at 3 µM,[10],74.8%
same,Activity,[11],0.33%
same,Activity,[12],Dose-dependent-effect
same,Activity,[13],5.18%
same,Activity,[14],Dose-dependent-effect
same,Activity,[15],Dose-dependent-effect
same,viability at 3 µM,[16],71.6%
same,Activity,[17],0.088%
same,Activity,[18],Dose-dependent-effect
same,Activity,[19],0.32%
same,viability at 1 µM,[20],96.1%
same,Activity,[21],4.46%
same,half-life at 100 µM,[22],2.4 h
same,Activity,[23],Dose-dependent-effect
same,Activity,[24],Dose-dependent-effect
same,Activity,[25],Dose-dependent-effect
same,Activity,[26],3.22%
same,Activity,[27],0.22%
same,Activity,[28],4.23%
same,Activity,[29],0.44%
same,Activity,[30],Dose-dependent-effect
same,Activity,[31],Dose-dependent-effect
same,viability at 3 µM,[32],66.3%
same,viability at 1 µM,[33],87.5%
same,Activity,[34],No effect
same,Activity,[35],11%
same,IC50,[36],410 nM
